Results published in US10888574B2, “Method for suppressing obesity, method for treating obesity, and method for promoting gene expression” (Kinjirushi Co., Ltd., priority 2017, dated 2021).

How the values were obtained:
brown adipocytes = test: Quantitative determination of lipid droplets by Oil Red O staining in brown adipocytes; format: cell-based, rat; conditions: for Quantity of lipid droplets produced, Average: relative absorbance at 540 nm, control = 100, n=3; for Quantity of lipid droplets produced compared with medium without the substance (in words): rat primary brown adipocytes, FIG. 2
Protocol: (§1) In each example, as described below, brown adipocytes were cultured in a test medium to which each of various test substances has been added, and then quantitative determination of expression level of UCP1 gene and quantitative determination of lipid droplets by Oil Red 0 staining were performed.
(§2) Noradrenaline, isovitexin, and isosaponarin were each added to the maintenance medium. The final concentration in each media was set to 1 μmol/L for noradrenaline; 1 mmol/L, 100 μmol/L, and 10 μmol/L for isovitexin; and 1 mmol/L, 100 μmol/L, and 10 μmol/L for isosaponarin.
(§3) The brown adipocytes used in the test were those contained in the rat-derived primary brown adipocyte culture kit (manufactured by Cosmo Bio Co., Ltd., code number: BAT02). Using the above-described growth medium, the brown adipocytes were inoculated in the respective wells of a 24-well plate at a density of 3×10^4 cells/well. The brown adipocytes were cultured at 37° C. with 5% CO2 for 3 days in a CO2 incubator (multi-gas incubator, manufactured by Panasonic Healthcare Holdings Co., Ltd., product number: MCO-19MUVH). Next, the medium in each well was replaced with the differentiation-inducing medium, and culture was performed for 2 days in the CO2 incubator (5% CO2, 37° C.). Then, the medium in each well was replaced with the above-described maintenance medium, and culture was performed for 2 days in the CO2 incubator (5% CO2, 37° C.). Further, the medium in each well was replaced with the above-described maintenance medium again, and the brown adipocytes were cultured for 1 day in the CO2 incubator (5% CO2, 37° C.). Subsequently, analysis of gene expression and evaluation by Oil Red 0 staining were performed as below.
Lipid droplets in the cell cultured as described in the above item (2) were quantitatively determined through the steps below using Lipid Assay Kit (manufactured by Cosmo Bio Co., Ltd., code number: AK09F).
Step 2-1. Fixative solution was prepared by mixing the following ingredients together: • 37% formaldehyde solution (formalin stock solution): 100 mL, • purified water: 900 mL, • sodium dihydrogen phosphate monohydrate (NaH2PO4·H2O): 4 g, and • disodium hydrogen phosphate, anhydrous (Na2HPO4): 6.5 g.
Step 2-2. The culture solution was removed from the well plate subjected to the culture operation in the above “(2) Culture of brown adipocytes”. Then, each well was washed once with 500 μL per well of PBS.
Step 2-3. 500 μL per well of the fixative solution prepared in Step 2-1 was added to each well, and the well plate was left at rest overnight at room temperature.
Step 2-4. After the immobilization, washing of each well with 500 μL per well of purified water was performed.
Step 2-5. Undiluted Oil Red 0 solution in the kit and purified water were mixed together at a ratio of 6:4 (volume ratio) to obtain a mixed solution, and the mixed solution was left at rest at room temperature for 10 to 15 minutes. Then, the mixed solution was filtered through a membrane filter having pores with a pore diameter of 0.5 to 1.0 μm. The filtrate was used as Oil Red 0 solution.
Step 2-6. 500 μL of the above-described Oil Red 0 solution was dispensed into each well, and the well plate was left at rest at room temperature for 15 minutes.
Step 2-7. After that, the Oil Red 0 solution was removed from the well, and each well was washed with purified water three times or more. Such washing was performed thoroughly until the used purified water becomes clear.
Step 2-8. 500 μL of solvent for extraction in the kit was added into the dried well, and pigments were eluted. 0.1 mL of the eluate with the pigments eluted therein was dispensed into each well of a 96-well plate, and absorbance at a wavelength of 540 nm was measured with a micro-plate reader (Infinite [registered trademark] M200 PRO, manufactured by TECAN). […]

UCP1 gene = test: Quantitative determination of expression level of UCP1 gene in brown adipocytes (real-time PCR, GAPDH internal standard); format: cell-based; conditions: rat primary brown adipocytes; for Relative value of UCP1 gene expression, Average: control = 1.00, n=3; for UCP1 gene expression as compared with the control (in words): FIG. 1
Protocol: as §1, §2, §3
RNAs were recovered from the brown adipocytes using 0.2 mL per well of TRI Reagent (manufactured by Molecular Research Center, Inc., catalog number: TR118). Using 500 ng of each sample RNA, cDNA synthesis was performed using a cDNA synthesis kit (product name: SuperScript [registered trademark] VILO™ cDNA Synthesis Kit, manufactured by Thermo Fisher Scientific Inc., catalog number: 11754050). Real-time PCR was performed using a real-time PCR kit (product name: LightCycler [registered trademark] Taqman [registered trademark] Master, manufactured by Roche Applied Science, catalog number: 4735536) and a real-time PCR device (product name: LigthCycler [registered trademark] 480 System II, manufactured by Roche Diagnostics). Analysis of UCP1 gene expression was performed using GAPDH as an internal standard.
Primers and probes used in the test were as follows: • UCP1 primer, • forward primer: […] (SEQ ID No. 1, synthesized by Sigma-Aldrich Co. LLC), • reverse primer: tggccttcaccttggatct (SEQ ID No. 2, synthesized by Sigma-Aldrich Co. LLC), • probe: Universal ProbeLibrary probe #130 (manufactured by Roche Life Science Co. Ltd.), • GAPDH primer, • forward primer: […] (SEQ ID No. 3, synthesized by Sigma-Aldrich Co. LLC), • reverse primer: […] (SEQ ID No. 4, synthesized by Sigma-Aldrich Co. LLC), and
probe: Universal ProbeLibrary probe #80 (manufactured by Roche Life Science Co. Ltd.).
The number of experiments performed was three. […] The significant difference is indicated as “<0.05” when the significance level of the t-test was 5%, and as “<0.01” when the significance level was 1%.

Compound: O=c1cc(-c2ccc(O)cc2)oc2cc(O)c([C@@H]3O[C@H](CO)[C@@H](O)[C@H](O)[C@H]3O)c(O)c12 [Isovitexin]
- Quantity of lipid droplets produced, Average (brown adipocytes; concentration 10 μmol/L): 84.8%
- Quantity of lipid droplets produced, Average (brown adipocytes; concentration 100 μmol/L): 83.3%
- Quantity of lipid droplets produced, Average (brown adipocytes; concentration 1 mmol/L): 77.8%
- Quantity of lipid droplets produced compared with medium without the substance (in words) (brown adipocytes): quantity of lipid droplets produced was smaller
- Relative value of UCP1 gene expression, Average (UCP1 gene; final concentration 10 μmol/L): 1.30
- Relative value of UCP1 gene expression, Average (UCP1 gene; final concentration 100 μmol/L): 1.30
- Relative value of UCP1 gene expression, Average (UCP1 gene; final concentration 1 mmol/L): 1.45
- UCP1 gene expression as compared with the control (in words) (UCP1 gene): significant increase in UCP1 gene expression

Compound: NC[C@H](O)c1ccc(O)c(O)c1 [Noradrenaline, reference compound]
- Relative value of UCP1 gene expression, Average (UCP1 gene; final concentration 1 μmol/L): 1.38

Compound: O=c1cc(-c2ccc(OC3OC(CO)C(O)C(O)C3O)cc2)oc2cc(O)c(C3OC(CO)C(O)C(O)C3O)c(O)c12 (centres unmarked) [Isosaponarin]
- Quantity of lipid droplets produced, Average (brown adipocytes; concentration 10 μmol/L): 104.0%
- Quantity of lipid droplets produced, Average (brown adipocytes; concentration 100 μmol/L): 97.7%
- Quantity of lipid droplets produced, Average (brown adipocytes; concentration 1 mmol/L): 98.9%
- Quantity of lipid droplets produced compared with medium without the substance (in words) (brown adipocytes): quantity of lipid droplets produced was smaller
- Relative value of UCP1 gene expression, Average (UCP1 gene; final concentration 10 μmol/L): 1.17
- Relative value of UCP1 gene expression, Average (UCP1 gene; final concentration 100 μmol/L): 1.30
- Relative value of UCP1 gene expression, Average (UCP1 gene; final concentration 1 mmol/L): 1.18
- UCP1 gene expression as compared with the control (in words) (UCP1 gene): significant increase in UCP1 gene expression
